Experiment [1] concerns Human breast cancer cell line T47D. The experiment is described as follows: Cell based caspase-3 activity assay: potentiation of MMS induced apoptosis. The following applies: Homo sapiens, T47D, 24 h, T47D cells, 11.1 μg/ml MMS, 24 hours, intracellular caspase-3 activity; read-out: EC50 (nM), potentiation of the apoptosis inducing activity of MMS. A digest of the protocol:
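T47D cells were exposed for 24 h to compound plus a minimally apoptotic MMS dose (medium containing 11.1 μg/ml MMS). Lysates were incubated 3 h at 37 °C with (Ac-DEVD)2-R110 caspase-3 substrate (20 μM in added buffer) and read at ex 496/em 520 nm. EC50 came from a sigmoidal fit of RFU versus log concentration.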

The test system of experiment [2] is SW620 human colorectal cancer cells. The experiment is described as follows: MTT based cell viability assay: potentiation of the growth inhibiting activity of MMS. The following applies: Homo sapiens, SW-620, 120 h, read-out: IC50 (nM), potentiation of the growth inhibiting activity of MMS, SW620 cells, 1.7 μg/ml MMS, 5 days (120 hours), MTT.
For experiment [3], the system named is BRCA-2 deficient CAPAN-1 human pancreatic cancer cells. The experiment is described as follows: MTT based cell viability assay: growth inhibition of BRCA-2 deficient CAPAN-1 cells. The following applies: 240 h, compound alone, 10 day assay.

`O=C(c1cc(Cn2c(=O)[nH]c(=O)c3c(F)cccc32)ccc1F)N1CCN(C(=O)C2CCCCC2)CC1` [Example 134, 1-(3-(4-(Cyclohexylcarbonyl)piperazine-1-carbonyl)-4-fluorobenzyl)-5-fluoroquinazoline-2,4(1H,3H)-dione]: the EC50 in experiment [1] was 4.7 nM. The IC50 in experiment [2] was 5.8 nM; in experiment [3], 45 nM.

With `O=C(c1cccs1)N1CCN(C(=O)c2cc(Cn3c(=O)[nH]c(=O)c4c(F)cccc43)ccc2F)CC1` [Example 136, 5-Fluoro-1-(4-fluoro-3-(4-(thiophene-2-carbonyl)piperazine-1-carbonyl)benzyl)quinazoline-2,4(1H,3H)-dione], the EC50 in experiment [1] was 3.2 nM. The IC50 in experiment [2] was 7.1 nM; in experiment [3], 40 nM.

Regarding `O=C(c1cccc(Cn2c(=O)[nH]c(=O)c3cc(F)ccc32)c1)N1CCN(c2ccccn2)CC1` [Example 140, 6-Fluoro-1-(3-(4-(pyridin-2-yl)piperazine-1-carbonyl)benzyl)quinazoline-2,4(1H,3H)-dione], the EC50 in experiment [1] worked out at 8.9 nM. Moreover, the IC50 in experiment [2] was 37 nM; in experiment [3], 155 nM.

In the case of `O=C(c1cccc(Cn2c(=O)[nH]c(=O)c3cc(F)ccc32)c1)N1CCN(C(=O)C2CCCCC2)CC1` [Example 142, 1-(3-(4-(Cyclohexylcarbonyl)piperazine-1-carbonyl)benzyl)-6-fluoroquinazoline-2,4(1H,3H)-dione], the EC50 in experiment [1] came out at 3.8 nM. Moreover, the IC50 in experiment [2] was found to be 22 nM; in experiment [3], 223 nM.

In the case of `O=C(c1cccc(Cn2c(=O)[nH]c(=O)c3cc(F)ccc32)c1)N1CCN(C(=O)C2CCCC2)CC1` [Example 143, 1-(3-(4-(Cyclopentylcarbonyl)piperazine-1-carbonyl)benzyl)-6-fluoroquinazoline-2,4(1H,3H)-dione], in experiment [1], the EC50 amounted to 6 nM. Further, the IC50 in experiment [2] is 15 nM; in experiment [3], 73 nM.

For `O=C(c1cc(Cn2c(=O)[nH]c(=O)c3cc(F)ccc32)ccc1F)N1CCN(c2ccccn2)CC1` [Example 145, 6-Fluoro-1-(4-fluoro-3-(4-(pyridin-2-yl)piperazine-1-carbonyl)benzyl)quinazoline-2,4(1H,3H)-dione], in experiment [1], the EC50 was found to be 6.5 nM. The IC50 turned out to be 12 nM in experiment [2] and 146 nM in experiment [3].

As for `O=C(c1ccc(F)c(Cn2c(=O)[nH]c(=O)c3cc(F)ccc32)c1)N1CCN(c2ncccn2)CC1` [Example 149, 6-Fluoro-1-(6-fluoro-3-(4-(pyrimidin-2-yl)piperazine-1-carbonyl)benzyl)quinazoline-2,4(1H,3H)-dione], the EC50 in experiment [1] stood at 5.8 nM. For the same molecule, the IC50 came to 14 nM in experiment [2] and 52 nM in experiment [3].

With `O=C(c1ccc(F)c(Cn2c(=O)[nH]c(=O)c3cc(F)ccc32)c1)N1CCN(c2ccccn2)CC1` [Example 150, 6-Fluoro-1-(6-fluoro-3-(4-(pyridin-2-yl)piperazine-1-carbonyl)benzyl)quinazoline-2,4(1H,3H)-dione], the EC50 in experiment [1] is 16 nM. Further, the IC50 came out at 25 nM in experiment [2] and 176 nM in experiment [3].

With `O=C(c1ccc(F)c(Cn2c(=O)[nH]c(=O)c3cc(F)ccc32)c1)N1CCN(C(=O)C2CCCCC2)CC1` [Example 152, 1-(3-(4-(Cyclohexylcarbonyl)piperazine-1-carbonyl)-6-fluorobenzyl)-6-fluoroquinazoline-2,4(1H,3H)-dione], in experiment [1], the EC50 is 5.1 nM. In addition, the IC50 came to 13 nM in experiment [2] and 121 nM in experiment [3].

On to `O=C(c1ccc(F)c(Cn2c(=O)[nH]c(=O)c3c(F)cccc32)c1)N1CCN(c2ncccn2)CC1` [Example 154, 5-Fluoro-1-(6-fluoro-3-(4-(pyrimidin-2-yl)piperazine-1-carbonyl)benzyl)quinazoline-2,4(1H,3H)-dione], for which, in experiment [1], the half-maximal effective concentration (EC50) was determined as 6.7 nM. Further, the IC50 in experiment [2] was determined as 7.3 nM; in experiment [3], 56 nM.

`O=C(c1ccc(F)c(Cn2c(=O)[nH]c(=O)c3c(F)cccc32)c1)N1CCN(c2ccccn2)CC1` [Example 155, 5-Fluoro-1-(6-fluoro-3-(4-(pyridin-2-yl)piperazine-1-carbonyl)benzyl)quinazoline-2,4(1H,3H)-dione]: the EC50 in experiment [1] stood at 12 nM. Besides, the figures for the IC50 in experiment [2] and in experiment [3] were 23 nM and 142 nM, respectively.

For the molecule `O=C(c1ccc(F)c(Cn2c(=O)[nH]c(=O)c3c(F)cccc32)c1)N1CCN(C(=O)C2CCCCC2)CC1` [Example 157, 1-(3-(4-(Cyclohexylcarbonyl)piperazine-1-carbonyl)-6-fluorobenzyl)-5-fluoroquinazoline-2,4(1H,3H)-dione], the EC50 in experiment [1] was determined as 26 nM. For the same molecule, the IC50 in experiment [2] amounted to 18 nM; in experiment [3] it was 202 nM.

Take `O=C(c1cccc(Cn2c(=O)[nH]c(=O)c3ccc(Cl)cc32)c1)N1CCN(c2ncccn2)CC1` [Example 161, 7-Chloro-1-(3-(4-(pyrimidin-2-yl)piperazine-1-carbonyl)benzyl)quinazoline-2,4(1H,3H)-dione]: the EC50 in experiment [1] is 405 nM. Further, the IC50 was determined as 506 nM in experiment [2] and 3550 nM in experiment [3].

For the molecule `O=C(c1cc(Cn2c(=O)[nH]c(=O)c3c(Cl)cccc32)ccc1F)N1CCN(C(=O)C2CCC2)CC1` [Example 168, 5-Chloro-1-(3-(4-(cyclobutylcarbonyl)piperazine-1-carbonyl)-4-fluorobenzyl)quinazoline-2,4(1H,3H)-dione], the EC50 in experiment [1] worked out at 3.8 nM. Besides, the IC50 turned out to be 15 nM in experiment [2] and 1460 nM in experiment [3].

Take `O=C(c1ccco1)N1CCN(C(=O)c2cc(Cn3c(=O)[nH]c(=O)c4c(F)cccc43)ccc2F)CC1` [Example 172, 5-Fluoro-1-(4-fluoro-3-(4-(furan-2-carbonyl)piperazine-1-carbonyl)benzyl)quinazoline-2,4(1H,3H)-dione]: the EC50 in experiment [1] amounted to 3.2 nM. Besides, the IC50 in experiment [2] worked out at 9.5 nM; in experiment [3] it was 389 nM.

With `O=C(c1cc(F)cc(Cn2c(=O)[nH]c(=O)c3c(F)cccc32)c1)N1CCN(c2ncccn2)CC1` [Example 176, 5-Fluoro-1-(5-fluoro-3-(4-(pyrimidin-2-yl)piperazine-1-carbonyl)benzyl)quinazoline-2,4(1H,3H)-dione], the EC50 in experiment [1] stood at 10 nM. Besides, the IC50 in experiment [2] amounted to 15 nM; in experiment [3], 187 nM.

For `O=C(c1ccco1)N1CCN(C(=O)c2cc(Cn3c(=O)[nH]c(=O)c4cc(F)ccc43)ccc2F)CC1` [Example 185, 6-Fluoro-1-(4-fluoro-3-(4-(furan-2-carbonyl)piperazine-1-carbonyl)benzyl)quinazoline-2,4(1H,3H)-dione], the concentration for a half-maximal effect (EC50) in experiment [1] turned out to be 2.1 nM. Moreover, the IC50 was 6.7 nM in experiment [2] and 358 nM in experiment [3].

Consider `O=C(c1cc(F)cc(Cn2c(=O)[nH]c(=O)c3cc(F)ccc32)c1)N1CCN(c2ncccn2)CC1` [Example 186, 6-Fluoro-1-(5-fluoro-3-(4-(pyrimidin-2-yl)piperazine-1-carbonyl)benzyl)quinazoline-2,4(1H,3H)-dione], for which the EC50 in experiment [1] was determined as 6.8 nM. For the same molecule, the values for the IC50 in experiment [2] and in experiment [3] were 24 nM and 167 nM, respectively.

Turning to `O=C(c1cccc(Cn2c(=O)[nH]c(=O)c3cc(F)ccc32)n1)N1CCN(c2ncccn2)CC1` [Example 199, 6-Fluoro-1-((2-(4-(pyrimidin-2-yl)piperazine-1-carbonyl)pyridin-6-yl)methyl)quinazoline-2,4(1H,3H)-dione], the EC50 in experiment [1] worked out at 4.9 nM. Also, the IC50 in experiment [2] was 19 nM; in experiment [3], 948 nM.

Broadly, the EC50 is the midpoint of the concentration-response curve.

For the origin of these results see patent US9926304B2, “1-(arylmethyl)quinazoline-2,4(1H,3H)-diones as PARP inhibitors and the use thereof” (Impact Therapeutics, Inc., priority 2011, dated 2018).
